In EP0218400A1, “Assay methods for chemotherapeutic agents” (DAMON BIOTECH, INC., priority 1985, dated 1987):

Columns and labels:
[1] = tested on: Human T cell lymphoma (MOLT-4) cells; assay: In vitro drug pretreatment of encapsulated cells, then growth in the peritoneal cavity of mice; type: in vivo; conditions: for No. of tumor cells per capsule: then 7 days i.p. in C57BL/6 mice
Description: The encapsulated tumors are preferably incubated at 37° C in medium for 1 to 2 hours. A 25 percent (v/v) suspension can then be prepared (preferably without bovine serum). The suspension can be inoculated in the peritoneal cavity of the host animal (i.e., with a 16 gauge needle).
(§1) In the experiments that follow, the drugs and other agents tested were administered to the host animal by injection at the various times called for in the protocol being tested. At various periods after treatment, the mice were killed by cervical dislocation. The peritoneal cavity of each mouse was washed with PBS or medium and floating microcapsules were aspirated using a large bore plastic Pasteur pipette. Microcapsules were transferred to 15 ml tubes and washed 3 to 4 times with PBS to remove host peritoneal cells. The washed microcapsules were aspirated into 1 ml serological pipettes, allowed to sediment, and the volume of packed microcapsules was determined. Microcapsules were then transferred to a glas dounce homogenizer (7 ml volume) and disrupted with 3 strokes of an A-tolerance plumger. Cells suspensions were filtered through nylon mesh to remove the disrupted membranes. The suspensions containing tumor cells were centrifuged and the pellet was resuspended in 0.25 to 0.5 ml of complete medium. After mixing equal volumes of cell suspension and trypan blue, viable cell counts were determined using a hemocytometer.
(§2) The number of tumor cells per 1 ml of packed microcapsules was determined as follows: a = ? where b = total number of tumor cells in the suspension, and c = total volume of microcapsules used for the preparation of this suspension.
(§3) By comparing the number of tumor cells in 1 ml of microcapsules derived from non-treated and drug-treated mice, the percent inhibition of tumor cell growth was calculated: [formula] where ac = number of tumor cells from the non-treated control microcapsules, and ae = number of tumor cells from the drug treated microcapsules.
Human T cell lymphoma (MOLT-4) cells were encapsulated according to the procedures described above and incubated in vitro in RPMI I640 medium supplemented with 10 percent fetal calf serum, glutamine and antibiotics for one hour of 37°C. During incubation they were exposed to various concentrations of 1,3-B (2-chloroethyl)-1-nitrosourea (BCNU), 5-fluorouracil (5-FU) and adriamycin. The microcapsules were then washed and implanted into the peritoneal cavity (i.p.) of C57BL/6 mice (Animal Production Area NCI-Frederick Cancer Research Facility) using #18-14 needles. After seven days the mice were sacrificed and their peritoneal cavities were washed with PBS and aspirated to collect the microcapsules in a Pasteur pipette. The microcapsules were washed several times from the host peritoneal cells. The microcapsules from the individual mice were counted by transferring them into wells of a 96 well microplate. Using an inverted microscope, the numbers of microcapsules in each well were counted. Each well was washed out and microcapsules were transferred into the glass homogenizer.
Microcapsules were then disrupted, and the suspension was filtered, centrifugated and reconstituted with PBS. The concentration and total number of cells were counted using a hemocytometer.

MOLT-4 lymphoma cells = assay: In vivo inhibition of encapsulated Molt-4 lymphoma growth in C57BL/6 mice; parameters: species or system human
Description: as §1, §2, §3
MOLT-4 lymphoma cells were also used in an in vivo assay. As before, the MOLT-4 cells were encapsulated and transplanted i.p. into C57BL/6 mice. On day 1 following the transplantation of the encapsulated cells, the mice were treated i.v. intravenous (i.v.) with BCNU, adriamycin or cyclophosphamide (CY). This approach allowed the testing of cyclophosphamide (CY) which is inefficient in vitro because it must be metabolized to obtain an active cytotoxic derivative. Ten days after transplantation, the encapsulated cells were retrieved and the tumor cells contained therein were counted. […]

[2] = tested on: MOLT-4 human lymphoma cells; assay: In vivo sensitivity of encapsulated MOLT-4 cells in nude mice, NCI schedule; conditions: Adriamycin 6 mg/kg, 15 days after transplantation
Description: as §1, §2, §3
In the next experiment various drugs were administered in vivo according to schedules and doses typically used for screening antitumor effects of the drugs at the National Cancer Institute, Developmental Therapeutics program.
MOLT-4 human lymphoma cells were encapsulated and transplanted into peritoneum of nude mice. Doses of various drugs were applied i.v. at 1, 5 and 9 days after tumor cell transplantation.

[3] = tested on: human colon adenocarcinoma (HT-29) cells; assay: In vivo growth of encapsulated HT-29 cells in C57BL/6 mice; conditions: for inhibition at 20 mg/kg: Mus musculus; for No. of cells per capsule / Total No. of tumor cells: 4 days
Description: as §1, §2, §3
A second human cancer cell line was also used to further analyze in vivo effects of different drugs on the growth of tumors. Encapsulated human colon adenocarcinoma (HT-29) cells were again transplanted into C57BL/6 mice and various drugs were administered after 3 days either by intravenous or by intraperitoneal injection. Animals were sacrificed after 4 days and number of cells per capsule were counted to calculate inhibition rates for the various treatment procedures. […] In fact, 5-FU is a preferred chemotherapeutic agent for patients with gastrointestinal malignancies.

Original P388 cells = assay: In vivo growth of encapsulated original P388 lymphoma cells in nude mice
Description: as §1, §2, §3
(§4) Since drug-resistance is one of the most important causes of failure in chemotherapy, it is crucial that a predictive assay be able to distinguish between effective and non-effective drugs for particular tumors. […] One day later the mice received by i.v. administration Adriamycin (6 mg/kg), Vinblastin (1 mg/kg) or Cyclophosphamide (100 mg/kg). Five days after administration some of the mice were sacrificed, the microcapsules were recovered and the numbers of tumor cells inside the capsules were determined. The remaining mice received a second administration and the microcapsules were recovered from the remaining mice 3 days afterwards. The results are shown in Table 7 and correlate well with the known characteristics of P388 cell line and its variant.

P388 Resistant Cells = assay: In vivo growth of encapsulated adriamycin-resistant P388 lymphoma cells in nude mice
Description: as §1, §2, §3, §4

LOX Melanoma cells = conditions: i.v.; Adriamycin 6, BCNU 20, CY 100, 5-Fu 60 mg/kg; survival during 3 months of observation; nude mice; cited from earlier work
[4] = i.v. on day 1, Adriamycin 10 mg/kg, BCNU 100 mg/kg, CY 200 mg/kg, capsules retrieved ten days after transplantation
[5] = i.p. 3 days after transplantation, 5-Fu 150 mg/kg, CY 250 mg/kg, Adriamycin 20 mg/kg
[6] = i.v. 20 mg/kg 3 days after transplantation
[7] = 5 + 3 days after treatment (3 days after second administration), Adriamycin 6, Vinblastin 1, Cyclophosphamide 100 mg/kg i.v.
[8] = 5 days after treatment, i.v. one day after inoculation, Adriamycin 6, Vinblastin 1, Cyclophosphamide 100 mg/kg

COc1cccc2c1C(=O)c1c(O)c3c(c(O)c1C2=O)C[C@@](O)(C(=O)CO)C[C@@H]3O[C@H]1C[C@H](N)[C@H](O)[C@H](C)O1 [Adriamycin]
No. of tumor cells per capsule ([1]; 2.5 µg/ml in vitro for one hour): 2 x 10^3
No. of tumor cells per capsule ([1]; 10 µg/ml in vitro for one hour): 10
inhibition at 2.5 µg/mL ([1]; Mus musculus, MOLT-4, ip): 60%
inhibition at 10 µg/mL ([1]; Mus musculus, MOLT-4, ip): 100%
inhibition at 10 mg/kg (MOLT-4 lymphoma cells; Mus musculus, MOLT-4, iv, i.v. on day 1, Adriamycin 10 mg/kg, BCNU 100 mg/kg, CY 200 mg/kg, capsules retrieved ten days after transplantation): 91.3%
reduction of the number of viable tumor cells in the capsules (in words) (MOLT-4 lymphoma cells; i.v. on day 1, ten days after transplantation): more effective than BCNU
No. of cells per capsule (MOLT-4 lymphoma cells; [4]): 237
Total No. of tumor cells (MOLT-4 lymphoma cells; [4]): 8 x 10^4
inhibition of tumor cell proliferation (in words) ([2]; 5-FU 60 mg/kg i.v. days 1, 5, 9): dramatic inhibition of tumor cell proliferation
inhibition at 6 mg/kg ([2]; Mus musculus, MOLT-4, iv, 360 h, i.v. days 1, 5, 9, Cyclophosphamide 100 mg/kg, 5-Fu 60 mg/kg, nude mice): 95%
No of viable tumor cells per 1 ml of capsules ([2]; i.v. days 1, 5, 9, Cyclophosphamide 100 mg/kg, 5-Fu 60 mg/kg, nude mice): 2.7 x 10^6
inhibition at 20 mg/kg ([3]; HT-29, ip): 45%
inhibition at 20 mg/kg ([3]; HT-29, iv): 50%
No. of cells per capsule [3, 5]: 1.1 x 10^4
Total No. of tumor cells [3, 5]: 5.8 x 10^5
No. of cells per capsule [3, 6]: 1 x 10^4
Total No. of tumor cells [3, 6]: 1.2 x 10^6
% Inhibition (Original P388 cells; [7]): 92%
No. cells/ml (Original P388 cells; [7]): 4 x 10^6
% Inhibition (Original P388 cells; [8]): 64%
No. cells/ml (Original P388 cells; [8]): 8 x 10^6
No. cells/ml (P388 Resistant Cells; [7]): 32 x 10^6
No. cells/ml (P388 Resistant Cells; [8]): 18 x 10^6
inhibiting the growth of the drug-resistant variant (in words) (P388 Resistant Cells; Adriamycin 6 mg/kg, Vinblastin 1 mg/kg i.v.): Neither Adriamycin nor Vinblastin in the doses administered was effective
% survived mice transplanted with nonencapsulated tumor cells (LOX Melanoma cells): 33%
